System: 282377-053-R-J1-PDC complex spheroid viability
Test: Anticancer human tumor 282377-053-R-J1-PDC patient-derived colon adenocarcinoma cell line growth inhibition [POLQ]
Conditions: for IC50: curve of first compound; for viability, T/C: stronger effect = lower value
Summary of the method: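 Complex spheroid viability model combining PDC tumour cells with endothelial (HUVEC) and MSC stromal cells. Novobiocin, ART-558 or RP6685 were tested singly and in combination with standard and investigational anticancer drugs. Each was titrated in half-log steps from near clinical Cmax, or from 10 microM where Cmax was unknown.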

[1] = second compound 0.0316 µM, first compound 0.0316 µM
[2] = second compound 0.0316 µM, first compound 0.1 µM
[3] = second compound 0.0316 µM, first compound 0.316 µM
[4] = second compound 0.0316 µM, first compound 1 µM
[5] = second compound 0.0316 µM, first compound 3.16 µM
[6] = second compound 0.0316 µM, first compound 10 µM
[7] = second compound 0.1 µM, first compound 0.0316 µM
[8] = second compound 0.1 µM, first compound 0.1 µM
[9] = second compound 0.1 µM, first compound 0.316 µM
[10] = second compound 0.1 µM, first compound 1 µM
[11] = second compound 0.1 µM, first compound 3.16 µM
[12] = second compound 0.1 µM, first compound 10 µM
[13] = second compound 0.316 µM, first compound 0.0316 µM
[14] = second compound 0.316 µM, first compound 0.1 µM
[15] = second compound 0.316 µM, first compound 0.316 µM
[16] = second compound 0.316 µM, first compound 1 µM
[17] = second compound 0.316 µM, first compound 3.16 µM
[18] = second compound 0.316 µM, first compound 10 µM
[19] = second compound 1 µM, first compound 0.0316 µM
[20] = second compound 1 µM, first compound 0.1 µM
[21] = second compound 1 µM, first compound 0.316 µM
[22] = second compound 1 µM, first compound 1 µM
[23] = second compound 1 µM, first compound 3.16 µM
[24] = second compound 1 µM, first compound 10 µM
[25] = second compound 3.16 µM, first compound 0.0316 µM
[26] = second compound 3.16 µM, first compound 0.1 µM
[27] = second compound 3.16 µM, first compound 0.316 µM
[28] = second compound 3.16 µM, first compound 1 µM
[29] = second compound 3.16 µM, first compound 3.16 µM
[30] = second compound 3.16 µM, first compound 10 µM
[31] = second compound 10 µM, first compound 0.0316 µM
[32] = second compound 10 µM, first compound 0.1 µM
[33] = second compound 10 µM, first compound 0.316 µM
[34] = second compound 10 µM, first compound 1 µM
[35] = second compound 10 µM, first compound 3.16 µM
[36] = second compound 10 µM, first compound 10 µM
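Further: spheroids exposed to compounds for seven days.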
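Wherever viability, T/C is given: 100% = DMSO vehicle control viability.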

Compound `CNCc1ccc(-c2[nH]c3cc(F)cc4c3c2CCNC4=O)cc1` + Cc1cccc(N(C)C(=O)C2C(O)CCN2c2nc(C)cc(C(F)(F)F)c2C#N)c1 has an IC50 (second compound 0.0316 µM) greater than 10 µM, an IC50 (second compound 0.1 µM) greater than 10 µM and an IC50 (second compound 0.316 µM) greater than 10 µM. The IC50 (second compound 1 µM) was greater than 10 µM, the IC50 (second compound 3.16 µM) was greater than 10 µM and the IC50 (second compound 10 µM) was greater than 10 µM. The viability, T/C [1] was 122%, the viability, T/C [2] was 89.9% and the viability, T/C [3] was 135%. The viability, T/C [4] was 113%, the viability, T/C [5] was 122% and the viability, T/C [6] was 144%. The viability, T/C [7] was 122%, the viability, T/C [8] was 94.3% and the viability, T/C [9] was 98.2%. For the same compound, the viability, T/C [10] was 93%, the viability, T/C [11] was 134% and the viability, T/C [12] was 140%. The viability, T/C [13] was 99.1%, the viability, T/C [14] was 105% and the viability, T/C [15] was 87.4%. It also gave a viability, T/C [16] of 98.1%, a viability, T/C [17] of 113% and a viability, T/C [18] of 124%. It also gave a viability, T/C [19] of 117%, a viability, T/C [20] of 98.7% and a viability, T/C [21] of 105%. The viability, T/C [22] was 104%, the viability, T/C [23] was 138% and the viability, T/C [24] was 129%. It also gave a viability, T/C [25] of 85.9%, a viability, T/C [26] of 114% and a viability, T/C [27] of 80.2%. The viability, T/C [28] was 85.1%, the viability, T/C [29] was 117% and the viability, T/C [30] was 150%. The viability, T/C [31] was 104%, the viability, T/C [32] was 98.4% and the viability, T/C [33] was 104%. The viability, T/C [34] was 103%, the viability, T/C [35] was 103% and the viability, T/C [36] was 138%.

With `COc1cccc(OCCCN)c1-c1cc(Nc2cnc(C#N)cn2)n[nH]1` + Cc1cccc(N(C)C(=O)C2C(O)CCN2c2nc(C)cc(C(F)(F)F)c2C#N)c1 the IC50 (second compound 0.0316 µM) was 0.632 µM, the IC50 (second compound 0.1 µM) was 0.559 µM and the IC50 (second compound 0.316 µM) was greater than 1 µM. It also gave an IC50 (second compound 1 µM) of 0.545 µM, an IC50 (second compound 3.16 µM) of 0.3 µM and an IC50 (second compound 10 µM) of 0.395 µM. For the same compound, the viability, T/C (second compound 0.0316 µM, first compound 0.00316 µM) was 102%, the viability, T/C (second compound 0.0316 µM, first compound 0.01 µM) was 98.5% and the viability, T/C [1] was 85.8%. For the same compound, the viability, T/C [2] was 74.5%, the viability, T/C [3] was 60.9% and the viability, T/C [4] was 43.1%. It also gave a viability, T/C (second compound 0.1 µM, first compound 0.00316 µM) of 100%, a viability, T/C (second compound 0.1 µM, first compound 0.01 µM) of 95.4% and a viability, T/C [7] of 97%. For the same compound, the viability, T/C [8] was 73.4%, the viability, T/C [9] was 60% and the viability, T/C [10] was 41.5%. The viability, T/C (second compound 0.316 µM, first compound 0.00316 µM) was 91%, the viability, T/C (second compound 0.316 µM, first compound 0.01 µM) was 88.5% and the viability, T/C [13] was 86.1%. It also gave a viability, T/C [14] of 64.2%, a viability, T/C [15] of 55.7% and a viability, T/C [16] of 49.2%. The viability, T/C (second compound 1 µM, first compound 0.00316 µM) was 109%, the viability, T/C (second compound 1 µM, first compound 0.01 µM) was 90.2% and the viability, T/C [19] was 72.9%. The viability, T/C [20] was 59%, the viability, T/C [21] was 57.3% and the viability, T/C [22] was 45.1%. It also gave a viability, T/C (second compound 3.16 µM, first compound 0.00316 µM) of 95.9%, a viability, T/C (second compound 3.16 µM, first compound 0.01 µM) of 102% and a viability, T/C [25] of 84.7%. For the same compound, the viability, T/C [26] was 65.7%, the viability, T/C [27] was 51.8% and the viability, T/C [28] was 39.4%. The viability, T/C (second compound 10 µM, first compound 0.00316 µM) was 85.3%, the viability, T/C (second compound 10 µM, first compound 0.01 µM) was 90.1% and the viability, T/C [31] was 72.3%. For the same compound, the viability, T/C [32] was 61.8%, the viability, T/C [33] was 55.8% and the viability, T/C [34] was 39.6%.

In the case of `O=C(c1cc(Cc2n[nH]c(=O)c3ccccc23)ccc1F)N1CCN(C(=O)C2CC2)CC1` + Cc1cccc(N(C)C(=O)C2C(O)CCN2c2nc(C)cc(C(F)(F)F)c2C#N)c1, the IC50 (second compound 0.0316 µM) is reported as greater than 10 µM, the IC50 (second compound 0.1 µM) is reported as greater than 10 µM and the IC50 (second compound 0.316 µM) is reported as greater than 10 µM. It also gave an IC50 (second compound 1 µM) greater than 10 µM, an IC50 (second compound 3.16 µM) greater than 10 µM and an IC50 (second compound 10 µM) greater than 10 µM. It also gave a viability, T/C [1] of 104%, a viability, T/C [2] of 107% and a viability, T/C [3] of 109%. For the same compound, the viability, T/C [4] was 107%, the viability, T/C [5] was 106% and the viability, T/C [6] was 80.7%. For the same compound, the viability, T/C [7] was 110%, the viability, T/C [8] was 108% and the viability, T/C [9] was 112%. For the same compound, the viability, T/C [10] was 90.9%, the viability, T/C [11] was 116% and the viability, T/C [12] was 80.4%. It also gave a viability, T/C [13] of 83.3%, a viability, T/C [14] of 94% and a viability, T/C [15] of 101%. It also gave a viability, T/C [16] of 87.3%, a viability, T/C [17] of 94% and a viability, T/C [18] of 85.3%. It also gave a viability, T/C [19] of 100%, a viability, T/C [20] of 92.2% and a viability, T/C [21] of 108%. The viability, T/C [22] was 111%, the viability, T/C [23] was 107% and the viability, T/C [24] was 95.3%. The viability, T/C [25] was 92.2%, the viability, T/C [26] was 117% and the viability, T/C [27] was 104%. It also gave a viability, T/C [28] of 88.6%, a viability, T/C [29] of 101% and a viability, T/C [30] of 101%. The viability, T/C [31] was 84.6%, the viability, T/C [32] was 110% and the viability, T/C [33] was 90.4%. The viability, T/C [34] was 110%, the viability, T/C [35] was 87% and the viability, T/C [36] was 107%.

`O=c1[nH]cc(F)c(=O)[nH]1` + Cc1cccc(N(C)C(=O)C2C(O)CCN2c2nc(C)cc(C(F)(F)F)c2C#N)c1 was tested, and the IC50 (second compound 0.0316 µM) was greater than 10 µM, the IC50 (second compound 0.1 µM) was greater than 10 µM and the IC50 (second compound 0.316 µM) was greater than 10 µM. It also gave an IC50 (second compound 1 µM) greater than 10 µM, an IC50 (second compound 3.16 µM) greater than 10 µM and an IC50 (second compound 10 µM) greater than 10 µM. The viability, T/C [1] was 111%, the viability, T/C [2] was 104% and the viability, T/C [3] was 89.8%. For the same compound, the viability, T/C [4] was 78.8%, the viability, T/C [5] was 70.3% and the viability, T/C [6] was 68.5%. The viability, T/C [7] was 102%, the viability, T/C [8] was 111% and the viability, T/C [9] was 128%. For the same compound, the viability, T/C [10] was 86%, the viability, T/C [11] was 76.7% and the viability, T/C [12] was 70.4%. The viability, T/C [13] was 117%, the viability, T/C [14] was 88.7% and the viability, T/C [15] was 116%. It also gave a viability, T/C [16] of 74.9%, a viability, T/C [17] of 80.3% and a viability, T/C [18] of 67.9%. It also gave a viability, T/C [19] of 107%, a viability, T/C [20] of 85.5% and a viability, T/C [21] of 105%. The viability, T/C [22] was 104%, the viability, T/C [23] was 82.7% and the viability, T/C [24] was 63.1%. It also gave a viability, T/C [25] of 99.1%, a viability, T/C [26] of 104% and a viability, T/C [27] of 80.6%. For the same compound, the viability, T/C [28] was 88.6%, the viability, T/C [29] was 80.1% and the viability, T/C [30] was 68.7%. It also gave a viability, T/C [31] of 113%, a viability, T/C [32] of 109% and a viability, T/C [33] of 107%. For the same compound, the viability, T/C [34] was 76.4%, the viability, T/C [35] was 69.7% and the viability, T/C [36] was 63.8%.

From PubChem BioAssay AID1963852 (Molecular Pharmacology Branch, DTP, NCI, 2024)
